We go through one molecule from ChEMBL document CHEMBL1144060, “Tetrin C, a new glycosylated polyene macrolide antibiotic produced by Streptomyces sp. GK9244” (J Nat Prod, 1999).

In test [1] the test system is Umbelopsis ramanniana. Nature of the test: Antifungal activity against Mortierella ramanniana. It is filed as functional.
Test [2] concerns Penicillium chrysogenum. Nature of the test: Antifungal activity against Penicillium chrysogenum. It is filed as functional.
Test [3] deals with Candida albicans. Description: Antifungal activity against Candida albicans. It is filed as functional.
The test system of test [4] is P388. Description: Cytotoxicity against mouse P388 cells. It is filed as functional, cell-based.

SMILES strings stand for the structures. In brackets after ≈: the same amount, converted by molar mass.

As a reminder, the MIC is the lowest concentration that inhibits growth of the organism. Read a high MIC as weaker potency. By IC50 is commonly meant the concentration at which inhibition is half-maximal. A high value points to weaker potency in that assay. With `C[C@H]1/C=C/C=C/C=C/C=C/[C@H](O[C@@H]2O[C@H](C)[C@@H](O)[C@H](N)[C@@H]2O)C[C@@H]2O[C@](O)(C[C@@H](O)CC(=O)C(=O)/C=C/C(=O)O[C@@H]1C)C[C@H](O)[C@H]2C(=O)O` [TETRIN C], the values for the MIC in test [1], in test [2] and in test [3] were 5 µg/mL (≈ 7.21 µM), 10 µg/mL (≈ 14.4 µM) and 10 µg/mL (≈ 14.4 µM), respectively. Moreover, half-maximal inhibition in test [4] (IC50) was put at 4.6 µg/mL (≈ 6.63 µM).
